The values that follow come from ChEMBL document CHEMBL1201862, “PubChem BioAssay data set” (2004).

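Compound exposure: 48 hours, 5 concentrations, 96-well plates. GI50 marks 50% less growth.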 The source made the active and inactive calls. Rule as the data show it: active = GI50 up to about 1.1 µM and inactive = higher.

Some test systems named below: CCRF-CEM; HL-60; HOP-62; HT-29; LOX IMVI; LXFL 529; MOLT-4; NCI-H522; SF-268; SK-MEL-2; SK-MEL-5; SN12C; SNB-19; BT-549; DU-145; Hs-578T; MDA-MB-435; MDA-N; SR; T47D.
Assay in all cases: NCI tumour cell line growth inhibition, 48 h

For the molecule `COc1ccc(OC(C(=O)O)c2ccccc2)c2c1CCCC2=O` (stereo not drawn), the GI50 in the assay with CCRF-CEM, in the assay on HL-60, in the assay with HOP-62, in the assay with HT-29, in the assay with LOX IMVI and in the assay on LXFL 529 was > 100 µM (inactive) each time. Besides, the GI50 in the assay with MOLT-4, with NCI-H522, in the assay with SF-268, with SK-MEL-2, in the assay on SK-MEL-5 and with SN12C was > 100 µM (inactive) in each case. The GI50 in the assay on SNB-19 was > 100 µM (inactive).
For the molecule `NCC(=O)OCN1C(=O)C2C3C=CC(C2C1=O)C1C2C(=O)N(COC(=O)CN)C(=O)C2C31` (stereo not drawn), the GI50 in the assay with CCRF-CEM was 21 µM (inactive); in the assay with HL-60, 18.2 µM (inactive); in the assay on HT-29, 36.6 µM (inactive); in the assay on LOX IMVI, 19.1 µM (inactive); with LXFL 529, 36.2 µM (inactive); in the assay with MOLT-4 it was 16.9 µM (inactive). For the same molecule, the GI50 in the assay on SF-268 was 23.4 µM (inactive); with SK-MEL-2, 21.4 µM (inactive); in the assay on SK-MEL-5, 17.7 µM (inactive); with SN12C, 23.3 µM (inactive); in the assay with SNB-19, 48.8 µM (inactive).
For the molecule `Cc1ccc(S(=O)(=O)N/N=C\c2c3ccccc3[n+]([O-])c3ccccc23)cc1`, the GI50 was 0.476 µM (active) in the assay on CCRF-CEM; 0.889 µM (active) with HL-60; 5.38 µM (inactive) in the assay on HOP-62; 1.63 µM (inactive) in the assay on HT-29; 1.08 µM (active) in the assay on LOX IMVI; 0.935 µM (active) in the assay with LXFL 529. Further, the GI50 is 0.612 µM (active) with MOLT-4; 2.02 µM (inactive) in the assay on NCI-H522; 4.23 µM (inactive) in the assay on SF-268; 4.41 µM (inactive) in the assay with SK-MEL-2; 5.21 µM (inactive) in the assay with SK-MEL-5; 4.59 µM (inactive) with SN12C. Further, in the assay with SNB-19, the GI50 was 11.9 µM (inactive).
As for `Oc1ccccc1CNCc1nc2ccccc2[nH]1`, the GI50 in the assay with BT-549 is 75.7 µM (inactive); in the assay with CCRF-CEM it was 29 µM (inactive); with DU-145, > 100 µM (inactive); in the assay on HL-60, 40.9 µM (inactive); with HOP-62, 69 µM (inactive); with HT-29, 0.495 µM (active). The GI50 in the assay with Hs-578T is > 100 µM (inactive); in the assay on LOX IMVI it was 57 µM (inactive); with MDA-MB-435, > 100 µM (inactive); in the assay with MDA-N, > 100 µM (inactive); in the assay with MOLT-4, 65.5 µM (inactive); with NCI-H522, > 100 µM (inactive). In addition, the GI50 with SF-268 is > 100 µM (inactive); in the assay on SK-MEL-2 it was > 100 µM (inactive); with SK-MEL-5, 22.4 µM (inactive); in the assay on SN12C it was > 100 µM (inactive); with SNB-19, > 100 µM (inactive); with SR, 50 µM (inactive). The GI50 in the assay on T47D is > 100 µM (inactive).
`C=CCNC(=O)N(CCCCC(NC(C)=O)C(=O)NCc1ccccc1)Cc1ccccc1` (stereo not drawn): the GI50 in the assay on CCRF-CEM, with HL-60, with HOP-62, with HT-29, in the assay with LOX IMVI and with LXFL 529 was > 100 µM (inactive) throughout. For the same molecule, the GI50 in the assay on MOLT-4, in the assay with NCI-H522, in the assay with SF-268, in the assay with SK-MEL-2, in the assay on SK-MEL-5 and with SN12C was > 100 µM (inactive) each time. In the assay with SNB-19, the GI50 was > 100 µM (inactive).
As for `Oc1ccc(-c2nc(-c3cccnc3)c(-c3ccc(Cl)cc3)[nH]2)cc1O`, the GI50 in the assay on BT-549 is 10 µM (inactive); with CCRF-CEM, 4.48 µM (inactive); in the assay with DU-145, 22 µM (inactive); in the assay with HL-60, 5.05 µM (inactive); in the assay on HOP-62 it was 12.4 µM (inactive); with HT-29 it was 14.6 µM (inactive). The GI50 in the assay on Hs-578T is 12.2 µM (inactive); in the assay on LOX IMVI, 9.82 µM (inactive); in the assay with MDA-MB-435, 13.8 µM (inactive); in the assay with MDA-N, 11.7 µM (inactive); in the assay on MOLT-4 it was 3.78 µM (inactive); with NCI-H522 it was 1.13 µM (inactive). In addition, the GI50 is 11.5 µM (inactive) in the assay on SF-268; 17.8 µM (inactive) with SK-MEL-2; 13 µM (inactive) in the assay on SK-MEL-5; 13.2 µM (inactive) in the assay with SN12C; 13 µM (inactive) in the assay with SNB-19; > 100 µM (inactive) in the assay with SR. In addition, the GI50 in the assay with T47D was 11.4 µM (inactive).
For the molecule `NC(=S)NN=C1Cc2ccccc2C1`, the GI50 in the assay with BT-549, in the assay on CCRF-CEM, in the assay on DU-145, with HL-60, in the assay with HOP-62 and in the assay with HT-29 was > 100 µM (inactive) each time. Also, the GI50 in the assay with Hs-578T, in the assay on LOX IMVI, in the assay with MDA-MB-435, in the assay on MDA-N, in the assay with MOLT-4 and in the assay on NCI-H522 was > 100 µM (inactive) each time. Moreover, the GI50 with SF-268, in the assay on SK-MEL-2, in the assay with SK-MEL-5, in the assay on SN12C, with SNB-19 and in the assay with SR was > 100 µM (inactive) throughout. For the same molecule, the GI50 in the assay on T47D is > 100 µM (inactive).
As for `O=C1NC(N2CCCC(CO)C2)=N/C1=C\c1ccccc1` (stereo not drawn), the GI50 in the assay on BT-549, in the assay on CCRF-CEM, in the assay with DU-145, in the assay on HL-60, in the assay with HOP-62 and in the assay on HT-29 was > 100 µM (inactive) in each case. The GI50 in the assay with Hs-578T, in the assay on LOX IMVI, in the assay on MDA-MB-435, in the assay on MDA-N, in the assay on MOLT-4 and in the assay on NCI-H522 was > 100 µM (inactive) each time. The GI50 with SF-268, with SK-MEL-2, with SK-MEL-5, with SN12C, in the assay on SNB-19 and in the assay on SR was > 100 µM (inactive) each time. In addition, in the assay with T47D, the GI50 was > 100 µM (inactive).
On to `NC(=S)N/N=C(/CC(=O)c1ccccc1)C(=O)Nc1ccc(Cl)c(Cl)c1`, for which the GI50 with CCRF-CEM was 28.6 µM (inactive); in the assay with HL-60, 23.3 µM (inactive); in the assay on HOP-62, 60.4 µM (inactive); with HT-29, > 100 µM (inactive); in the assay on LOX IMVI, 74.3 µM (inactive); in the assay on LXFL 529, 83.4 µM (inactive). Moreover, the GI50 in the assay on MOLT-4 was 32.3 µM (inactive); with NCI-H522, 21.6 µM (inactive); in the assay on SF-268, > 100 µM (inactive); in the assay on SK-MEL-2, 78.2 µM (inactive); with SK-MEL-5 it was 41.7 µM (inactive); with SN12C, > 100 µM (inactive). In addition, the GI50 with SNB-19 was 91.2 µM (inactive).
`Cc1ccc(NC(=O)C(=O)C(C(=O)c2ccc3ccccc3c2)C2OC(=O)c3ccccc32)cc1C` (stereo not drawn): the GI50 with CCRF-CEM is 5.2 µM (inactive); in the assay with HL-60, 8.87 µM (inactive); in the assay on HOP-62 it was 14.7 µM (inactive); in the assay with HT-29 it was 33 µM (inactive); with LOX IMVI, 14.4 µM (inactive); in the assay with LXFL 529, 8.36 µM (inactive). The GI50 in the assay with MOLT-4 was 3.3 µM (inactive); in the assay on NCI-H522, 3.03 µM (inactive); in the assay on SF-268, 7.41 µM (inactive); with SK-MEL-2, 15.5 µM (inactive); in the assay on SK-MEL-5, 15.2 µM (inactive); with SN12C, 18.9 µM (inactive). Moreover, the GI50 in the assay with SNB-19 is 5.31 µM (inactive).
Take `Oc1ccc2ccccc2c1-c1c(Nc2ccccc2)ccc2ccccc12`: the GI50 with BT-549 is 16.3 µM (inactive); in the assay on CCRF-CEM, 16.2 µM (inactive); with DU-145 it was 17.3 µM (inactive); in the assay with HL-60, 19.5 µM (inactive); in the assay with HOP-62, 16.1 µM (inactive); in the assay with HT-29, 33.7 µM (inactive). The GI50 was 19.9 µM (inactive) in the assay with Hs-578T; 19.4 µM (inactive) with LOX IMVI; 6.34 µM (inactive) in the assay with MDA-MB-435; 6.22 µM (inactive) with MDA-N; 17.7 µM (inactive) in the assay with MOLT-4; 15.8 µM (inactive) in the assay with NCI-H522. The GI50 in the assay on SF-268 is 16.7 µM (inactive); with SK-MEL-2, 17.2 µM (inactive); with SK-MEL-5, 13.6 µM (inactive); in the assay on SN12C it was 27 µM (inactive); in the assay on SNB-19, 18.5 µM (inactive); with SR, 16 µM (inactive). Also, in the assay on T47D, the GI50 is 18.8 µM (inactive).
Take `CC1(C)C2CCC(=O)C1C(OCc1ccccc1)C2` (stereo not drawn): the GI50 is 94 µM (inactive) in the assay on BT-549; > 100 µM (inactive) with CCRF-CEM; > 100 µM (inactive) in the assay with DU-145; 67.3 µM (inactive) in the assay on HL-60; > 100 µM (inactive) in the assay on HOP-62; > 100 µM (inactive) with HT-29. Further, the GI50 in the assay with Hs-578T, in the assay on LOX IMVI, with MDA-MB-435, with MDA-N, with MOLT-4 and in the assay on NCI-H522 was > 100 µM (inactive) each time. Also, the GI50 is > 100 µM (inactive) in the assay with SF-268; > 100 µM (inactive) in the assay on SK-MEL-2; 17.4 µM (inactive) with SK-MEL-5; > 100 µM (inactive) in the assay with SN12C; > 100 µM (inactive) in the assay with SNB-19; 29.8 µM (inactive) in the assay with SR. In the assay on T47D, the GI50 was > 100 µM (inactive).
`COc1ccc(OC)c2[nH]c(Sc3c([N+](=O)[O-])ncn3C)nc12`: the GI50 was > 100 µM (inactive) in the assay on HOP-62; 28.4 µM (inactive) in the assay on HT-29; 79.1 µM (inactive) with LOX IMVI; 13 µM (inactive) with LXFL 529; 26.5 µM (inactive) with SF-268; 17.6 µM (inactive) in the assay on SK-MEL-5. Besides, the values for the GI50 with SN12C and in the assay with SNB-19 were 19.9 µM (inactive) and > 10 µM (inactive), respectively.
